The values that follow come from BindingDB's records for patent US12357603 (Bayer Aktiengesellschaft; The Broad Institute, Inc., 2025).

Test [1] deals with Histone acetyltransferase KAT6A (UniProt Q92794). The experiment in a line: Kat6a Activity Assay. The procedure: Recombinant human His-tagged Kat6a protein (amino acids 194-810), was purified in-house from Baculovirus-infected insect cells (Sf9). Histone H4 peptide (amino acids 1-24, […]-VLRD-K(Btn)-amide), which was used as substrate, was synthesized by Biosyntan GmbH, Berlin, Germany. Acetyl Coenzyme A was purchased from Sigma-Aldrich (#A-2056).Kat6a was incubated for 60 mins at 22° C. in the presence of different concentrations of test substances (0 μM, and within the range 0.01-20 μM) in assay buffer [25 mM Tris/HCl pH 8, 1 mM EGTA, 2.5 mM Glutathion, 0.02% Chicken Albumin, 0.05% Pluronic F127, 25 mM NaCl, 220 nM H4 peptide and 600 nM Acetyl Coenzym A].The reaction was stopped by addition of Detection Solution (25 mM HEPES pH 7.5, 0.1% BSA, 22 nM SAXL665 (Cisbio #610SAXLE), 100 μM Anacardic Acid (Enzo #ALX-270-381), 1 nM Anti-Histone H4 (ACETYL K8) Antibody (ABCAM #AB15823) and 0.5 nM Anti-Rabbit IgG Eu (Perkin Elmer #AD0083).
Chain of Histone acetyltransferase KAT6A (Q92794 whole entry, the tested form may be a part): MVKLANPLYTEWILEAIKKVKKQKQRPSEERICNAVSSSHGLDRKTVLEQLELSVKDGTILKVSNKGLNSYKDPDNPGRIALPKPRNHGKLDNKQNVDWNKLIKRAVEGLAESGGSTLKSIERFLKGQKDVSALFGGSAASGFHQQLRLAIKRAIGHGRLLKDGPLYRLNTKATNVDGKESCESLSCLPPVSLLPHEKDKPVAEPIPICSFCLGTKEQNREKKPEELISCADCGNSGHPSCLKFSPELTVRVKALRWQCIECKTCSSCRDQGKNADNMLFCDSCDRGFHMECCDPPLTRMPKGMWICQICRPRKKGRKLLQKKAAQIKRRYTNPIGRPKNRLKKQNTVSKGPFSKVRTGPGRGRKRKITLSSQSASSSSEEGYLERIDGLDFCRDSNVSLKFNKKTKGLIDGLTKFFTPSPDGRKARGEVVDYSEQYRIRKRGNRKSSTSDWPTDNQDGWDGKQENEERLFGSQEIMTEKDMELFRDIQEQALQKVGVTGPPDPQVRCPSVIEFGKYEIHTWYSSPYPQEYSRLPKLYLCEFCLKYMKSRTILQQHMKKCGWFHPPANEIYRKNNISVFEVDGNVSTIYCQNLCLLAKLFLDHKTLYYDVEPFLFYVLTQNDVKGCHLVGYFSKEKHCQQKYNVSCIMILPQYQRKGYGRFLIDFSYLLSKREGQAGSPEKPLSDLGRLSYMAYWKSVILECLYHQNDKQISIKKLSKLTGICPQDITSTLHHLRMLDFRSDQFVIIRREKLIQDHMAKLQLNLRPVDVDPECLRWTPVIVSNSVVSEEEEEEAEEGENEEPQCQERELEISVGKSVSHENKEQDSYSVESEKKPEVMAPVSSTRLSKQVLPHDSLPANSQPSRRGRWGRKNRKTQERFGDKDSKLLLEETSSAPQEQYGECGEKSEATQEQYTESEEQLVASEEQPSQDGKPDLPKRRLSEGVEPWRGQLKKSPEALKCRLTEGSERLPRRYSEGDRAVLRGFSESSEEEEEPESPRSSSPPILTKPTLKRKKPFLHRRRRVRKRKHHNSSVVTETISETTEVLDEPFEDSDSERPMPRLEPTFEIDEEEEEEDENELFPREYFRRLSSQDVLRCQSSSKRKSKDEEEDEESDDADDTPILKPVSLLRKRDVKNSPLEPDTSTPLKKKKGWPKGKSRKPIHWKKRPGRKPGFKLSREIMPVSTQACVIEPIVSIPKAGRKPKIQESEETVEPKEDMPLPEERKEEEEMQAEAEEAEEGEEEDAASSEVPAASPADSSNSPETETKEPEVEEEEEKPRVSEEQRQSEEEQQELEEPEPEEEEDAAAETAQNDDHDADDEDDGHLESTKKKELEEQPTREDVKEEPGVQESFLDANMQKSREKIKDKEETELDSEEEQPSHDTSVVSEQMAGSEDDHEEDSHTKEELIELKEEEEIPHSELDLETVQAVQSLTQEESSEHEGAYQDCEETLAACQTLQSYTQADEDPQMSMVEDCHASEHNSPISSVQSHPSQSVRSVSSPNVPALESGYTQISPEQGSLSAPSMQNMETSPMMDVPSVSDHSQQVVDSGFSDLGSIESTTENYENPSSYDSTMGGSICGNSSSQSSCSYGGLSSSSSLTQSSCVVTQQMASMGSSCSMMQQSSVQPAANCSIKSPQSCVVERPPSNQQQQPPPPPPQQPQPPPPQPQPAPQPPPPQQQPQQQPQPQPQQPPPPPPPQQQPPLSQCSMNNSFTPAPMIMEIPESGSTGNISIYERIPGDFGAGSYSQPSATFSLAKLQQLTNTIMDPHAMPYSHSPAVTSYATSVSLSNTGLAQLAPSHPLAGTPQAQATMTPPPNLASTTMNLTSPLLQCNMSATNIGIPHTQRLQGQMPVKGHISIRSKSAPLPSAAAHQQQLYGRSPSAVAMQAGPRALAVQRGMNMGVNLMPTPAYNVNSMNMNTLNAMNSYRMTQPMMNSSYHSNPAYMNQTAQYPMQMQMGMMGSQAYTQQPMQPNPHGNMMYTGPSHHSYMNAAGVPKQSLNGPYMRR

For test [2], the target named is T1, Histone acetyltransferase KAT6B [431-2073] (Homo sapiens (Human), UniProt Q8WYB5).
T1 construct: 431-2073
T1 sequence (Q8WYB5 431-2073): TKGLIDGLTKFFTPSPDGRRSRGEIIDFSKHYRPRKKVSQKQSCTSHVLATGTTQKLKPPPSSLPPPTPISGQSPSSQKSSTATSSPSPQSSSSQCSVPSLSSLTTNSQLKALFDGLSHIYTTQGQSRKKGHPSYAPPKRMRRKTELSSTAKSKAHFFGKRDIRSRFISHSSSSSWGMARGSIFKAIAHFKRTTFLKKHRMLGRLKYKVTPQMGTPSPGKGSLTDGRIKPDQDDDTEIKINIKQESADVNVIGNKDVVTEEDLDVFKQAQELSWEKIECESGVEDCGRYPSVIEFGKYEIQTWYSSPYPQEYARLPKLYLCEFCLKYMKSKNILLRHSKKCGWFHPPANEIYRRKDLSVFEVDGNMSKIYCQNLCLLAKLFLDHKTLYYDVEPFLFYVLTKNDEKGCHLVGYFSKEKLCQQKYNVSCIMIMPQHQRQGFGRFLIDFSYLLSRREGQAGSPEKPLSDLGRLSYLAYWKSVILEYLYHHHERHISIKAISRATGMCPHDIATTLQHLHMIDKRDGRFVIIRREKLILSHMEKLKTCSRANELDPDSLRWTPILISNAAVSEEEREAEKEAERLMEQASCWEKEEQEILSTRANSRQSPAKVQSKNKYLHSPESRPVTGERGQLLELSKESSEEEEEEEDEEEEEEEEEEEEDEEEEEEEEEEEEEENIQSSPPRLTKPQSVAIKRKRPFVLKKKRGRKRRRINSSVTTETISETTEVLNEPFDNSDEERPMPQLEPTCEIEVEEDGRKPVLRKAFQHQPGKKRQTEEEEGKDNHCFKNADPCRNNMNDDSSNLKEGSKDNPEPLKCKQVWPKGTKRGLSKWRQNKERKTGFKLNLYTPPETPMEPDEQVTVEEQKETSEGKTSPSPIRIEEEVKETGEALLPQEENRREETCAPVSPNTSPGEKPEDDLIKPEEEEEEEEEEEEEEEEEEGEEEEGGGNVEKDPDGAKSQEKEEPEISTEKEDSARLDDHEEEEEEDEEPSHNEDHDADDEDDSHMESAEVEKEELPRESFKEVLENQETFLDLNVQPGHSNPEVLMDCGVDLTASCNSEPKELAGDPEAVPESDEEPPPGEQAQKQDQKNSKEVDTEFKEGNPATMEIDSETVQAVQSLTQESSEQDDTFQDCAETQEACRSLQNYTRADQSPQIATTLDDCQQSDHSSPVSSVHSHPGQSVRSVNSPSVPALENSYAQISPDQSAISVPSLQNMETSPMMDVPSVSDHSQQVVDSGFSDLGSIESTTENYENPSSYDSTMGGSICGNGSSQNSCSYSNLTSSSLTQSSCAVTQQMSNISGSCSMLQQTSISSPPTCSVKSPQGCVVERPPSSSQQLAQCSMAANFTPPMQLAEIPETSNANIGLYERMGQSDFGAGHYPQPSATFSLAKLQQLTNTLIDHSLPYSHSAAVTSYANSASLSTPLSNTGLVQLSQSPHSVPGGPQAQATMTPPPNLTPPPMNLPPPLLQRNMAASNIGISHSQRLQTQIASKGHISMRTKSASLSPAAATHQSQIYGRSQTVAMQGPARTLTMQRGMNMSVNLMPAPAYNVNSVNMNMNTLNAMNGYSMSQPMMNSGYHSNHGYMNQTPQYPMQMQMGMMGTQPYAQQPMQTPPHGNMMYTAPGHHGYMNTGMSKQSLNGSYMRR
In words: Kat6b Activity Assay.

In test [1], `CCCc1ccccc1S(=O)(=O)NC(=O)c1cc2ccc(N(C)C)cc2o1` [US12357603, Example 52] came in with an IC50 of 0.187 µM.

`Cc1ccc2cccc(S(=O)(=O)NC(=O)c3cc4cc(C#N)c(N(C)C)cc4o3)c2n1` [US12357603, Example 209] displayed an IC50 in test [1] of 0.903 µM.

`CCN(C)c1ccc2cc(C(=O)NS(=O)(=O)c3ccc(Cl)cc3Cl)oc2c1` [US12357603, Example 03]: the 50% inhibitory concentration (IC50) in test [1] came out at 1.39 µM; in test [2] it was 0.81 µM.

As for `CN(C)c1ccc2cc(C(=O)NS(=O)(=O)c3cc(Cl)cc4cccnc34)oc2c1` [US12357603, Example 124], the IC50 amounted to 0.0928 µM in test [1] and 0.0522 µM in test [2].

For `CN(C)c1ccc2cc(C(=O)NS(=O)(=O)c3c(Cl)cccc3Cl)oc2c1` [US12357603, Example 98], the IC50 in test [1] came to 0.465 µM.

Regarding `CC(C)Oc1ccccc1S(=O)(=O)NC(=O)c1cc2cc(Br)c(N(C)C)cc2o1` [US12357603, Example 208], the IC50 in test [1] amounted to 7.76 µM.

Turning to `CN(C)c1c(Br)cc2cc(C(=O)NS(=O)(=O)c3ccccc3-c3ccccc3)oc2c1F` [US12357603, Example 206], in test [1], inhibition was half-maximal at 4.7 µM (IC50).

`CCOc1ccc(Br)cc1S(=O)(=O)NC(=O)c1cc2ccc(N(C)CCOC)cc2o1` [US12357603, Example 213] registered a concentration for half-maximal inhibition (IC50) in test [1] of 1.06 µM.

As for `CN(c1ccccc1)c1ccc2cc(C(=O)NS(=O)(=O)c3ccc(Cl)cc3Cl)oc2c1` [US12357603, Example 09], the IC50 in test [1] was 2.55 µM; in test [2] it was 5.72 µM.

`COCCN(C)c1ccc2cc(C(=O)NS(=O)(=O)c3ccccc3-c3ccccc3)oc2c1` [US12357603, Example 39] displayed an IC50 in test [2] of 0.534 µM.

`CN(C)c1ccc2cc(C(=O)NS(=O)(=O)c3ccccc3-c3ccccc3)oc2c1C#N` [US12357603, Example 64] gave a concentration for half-maximal inhibition (IC50) in test [1] of 14.3 µM.

On to `CCCN(C)c1ccc2cc(C(=O)NS(=O)(=O)c3ccccc3-c3ccccc3)oc2c1` [US12357603, Example 37], for which, in test [2], it took 1.06 µM to reach half-maximal inhibition (IC50).

As to `O=C(NS(=O)(=O)c1ccccc1-c1ccccc1)c1cc2ccc(N3CCCC3=O)cc2o1` [US12357603, Example 62], the results for the IC50 in test [1] and in test [2] were 13.5 µM and more than 20 µM, respectively.

On to `CN(C)c1ccc2cc(C(=O)NS(=O)(=O)c3ccccc3-c3ccc(CO)cc3)oc2c1` [US12357603, Example 51], for which the half-maximal inhibitory concentration (IC50) in test [1] turned out to be 0.0573 µM; in test [2] it was 0.103 µM.

With `CN(c1ccc2cc(C(=O)NS(=O)(=O)c3ccccc3-c3ccccc3)oc2c1)C1CCCC1` [US12357603, Example 46], the results for the IC50 in test [1] and in test [2] were 3.65 µM and 0.112 µM, respectively.
